Measured values published in patent US20150119363A1, “METHODS OF TREATING BACTERIAL INFECTIONS” (Rampex Pharmaceuticals, Inc., priority 2012, published 2015).
Where two headings read alike, the source gives them in different places.

Columns and labels:
[1] = test system: Acinetobacter baumannii AB1054 (OXA-23); test: Checkerboard assay, biapenem potentiation (MPC8); format: cell-based; conditions: concentration to reduce biapenem MIC 8-fold
Description: (§1) The potency and spectrum of β-lactamase inhibitors was determined by assessing their antibiotic potentiation activity.
(§2) The potentiation effect is observed by the reduction of the minimum inhibitory concentration of β-lactam antibiotics in the presence of β-lactamase inhibitors (BLIs). […] Methods for Dilution of Antimicrobial Susceptibility Tests for Bacteria That Grow Aerobically—Eighth Edition; Approved Standard. CLSI Document M07-A8, 2009). In this assay, multiple dilutions of two drugs, namely BLI and β-lactam (biapenem), are being tested, alone and in combination, at concentrations equal to, above and below their respective minimal inhibitory concentrations (MICs). BLIs are solubilized in 10% DMSO at 10 mg/mL. Stock solutions are further diluted, according to the needs of a particular assay, in Mueller Hinton Broth (MHB). Stock solution can be stored at −80° C.
(§3) The checkerboard (CB) assay is performed in microtiter plates. Biapenem is diluted in the x axis, each column containing a single concentration of antibiotic. BLIs are diluted in the y axis, each row containing an equal concentration of BLI. The result of these manipulations is that each well of the microtiter plate contains a unique combination of concentrations of the two agents. The assay is performed in MHB with a final bacterial inoculum of 5×10^5 CFU/mL (from an early-log phase culture). Microtiter plates are incubated during 20 h at 35° C. and are read using a microtiter plate reader (Molecular Devices) at 650 nm as well as visual observation using a microtiter plate reading mirror.
(§4) Biapenem is a carbapenem β-lactam; only selected β-lactamases confer resistance to this class of antibiotics. Among them are serine carbapemenases that belong to class A and class D. Biapenem potentiation is studied in strains expressing various carbapenemases from these classes using CB assays. […] Cyclic boronic acid derivatives were capable of reducing biapenem MICs up to 1000-fold (Table 3).

[2] = test system: Acinetobacter baumannii AB1057 (OXA-58); test: Checkerboard assay, biapenem potentiation (MPC8); format: cell-based; conditions: concentration to reduce biapenem MIC 8-fold
Description: as §1, §2, §3, §4

[3] = test system: Klebsiella pneumoniae KP1004 (KPC-2); test: Checkerboard assay, biapenem potentiation (MPC8); format: cell-based; conditions: concentration to reduce biapenem MIC 8-fold
Description: as §1, §2, §3, §4

[4] = target: T1, KPC-2 (Klebsiella pneumoniae KP1004 lysate) (Klebsiella pneumoniae, UniProt Q9F663); test: Inhibition of biapenem hydrolysis by bacterial lysate; format: biochemical
T1 construct: Lysates were prepared from bacteria expressing various β-lactamases as a source of enzymes; endogenous in cells; host or cells: Klebsiella pneumoniae strains KP1004 and KP1008 (freeze-thaw lysate supernatants)
T1 sequence (Q9F663 25-293 limits assumed): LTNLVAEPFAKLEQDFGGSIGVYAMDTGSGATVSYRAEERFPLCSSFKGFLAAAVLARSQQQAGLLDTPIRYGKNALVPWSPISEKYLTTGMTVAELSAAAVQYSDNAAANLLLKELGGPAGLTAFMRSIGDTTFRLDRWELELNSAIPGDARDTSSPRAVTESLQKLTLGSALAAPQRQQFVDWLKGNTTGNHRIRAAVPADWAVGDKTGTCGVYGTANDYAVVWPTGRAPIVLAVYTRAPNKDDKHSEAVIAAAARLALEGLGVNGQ
Description: (§5) The activity of β-lactamase inhibitors to inhibit hydrolysis of biapenem was studied. Lysates were prepared from bacteria expressing various β-lactamases as a source of enzymes. Bacterial lysates were prepared as follows. A single colony from the fresh overnight plate was transferred to 5 mL of LB broth and grown to OD600=0.6-0.8. Next, this culture was transferred to 500 mL of LB and grown to OD600=0.7-0.9. Cells were pelleted by centrifugation at 5000 RPM (JA-14 rotor) for 15 minutes at room temperature. The pellet was resuspended in 10 mL of PBS. Five freeze-thaw cycles by putting cells at −20° C. and thawing them at the room temperature were next applied. After the last thaw step cells were spun down at 18K for 30 minutes and the supernatant was collected. This lysate was stored at −20° C.
(§6) Next, the activity of bacterial lysates was optimized for biapenem cleavage as follows. 50 μl of buffer A (50 mM Sodium Phosphate pH=7; 0.5% glucose, 1 mM MgCl2) was added to each well of 96-well UV-transparent plate. 50 μl of lysate was titrated vertically in 96-well plate column to generate 2-fold lysate dilutions. 100 μl of buffer A was added to each well, placed in plate reader at 37° C. and incubated for 15 minutes. 50 μl of 50 μg/mL solutions of biapenem in buffer A (pre-incubated at 37° C. for 15 minutes) were added to each well. Hydrolysis of biapenem was measured at 296 nm. This experiment was used to determine the optimal lysate dilution which produced a linear curve of relative UV signal that decreased to approximately OD=0.3-0.5 over 1 hour.
(§7) Finally, the potency of cyclic boronic acid derivative to inhibit the cleavage of biapenem cleavage by bacterial lysates was determined. 100 μl of buffer A (50 mM Sodium Phosphate pH=7; 0.5% glucose, 1 mM MgCl2) was added to each well of 96-well UV-transparent plate. 50 μl of 6× cyclic boronic acid derivative solution in buffer A was titrated vertically in 96-well plate column to generate 3-fold dilutions. 50 μl of diluted lysate in buffer A (optimal dilution is determined in experiment above) was added, and the plate was incubated in the plate reader at 37° C. for 15 minutes. 50 μl of 50 μg/mL solution of biapenem in buffer A (pre-incubated at 37° C. for 15 minutes) were next added to each well and hydrolysis of biapenem was recorded at 296 nm. EC50 of inhibition was determined by plotting the rate of biapenem cleavage vs. cyclic boronic acid derivative concentration.

[5] = target: T2, KPC-2 (Klebsiella pneumoniae KP1008 lysate) (Klebsiella pneumoniae, UniProt Q9F663); test: as above; format: biochemical
T2 construct: Lysates were prepared from bacteria expressing various β-lactamases as a source of enzymes; endogenous in cells; host or cells: Klebsiella pneumoniae strains KP1004 and KP1008 (freeze-thaw lysate supernatants)
T2 sequence (Q9F663 25-293 limits assumed): as above
Description: as §5, §6, §7

[6] = target: T3, KPC-3 (Escherichia coli EC1007 lysate) (Klebsiella pneumoniae, UniProt Q9F663, H272Y); test: as above; format: biochemical
T3 construct: Lysates were prepared from bacteria expressing various β-lactamases as a source of enzymes; endogenous in cells; host or cells: Escherichia coli strain EC1007 (freeze-thaw lysate supernatant)
T3 sequence (Q9F663 25-293 H272Y): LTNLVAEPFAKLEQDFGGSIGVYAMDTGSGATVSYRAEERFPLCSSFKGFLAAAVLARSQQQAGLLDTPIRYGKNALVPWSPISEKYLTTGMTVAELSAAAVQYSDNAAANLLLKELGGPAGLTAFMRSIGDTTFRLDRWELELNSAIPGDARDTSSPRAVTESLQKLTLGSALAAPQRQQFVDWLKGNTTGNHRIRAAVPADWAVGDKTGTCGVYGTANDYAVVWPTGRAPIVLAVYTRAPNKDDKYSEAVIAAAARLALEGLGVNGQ
Description: as §5, §6, §7

[7] = target: T4, SME-2 (Serratia marcescens SM1000 lysate) (Serratia marcescens, UniProt P52682); test: as above; format: biochemical
T4 construct: Lysates were prepared from bacteria expressing various β-lactamases as a source of enzymes
T4 sequence (P52682 28-294 limits assumed): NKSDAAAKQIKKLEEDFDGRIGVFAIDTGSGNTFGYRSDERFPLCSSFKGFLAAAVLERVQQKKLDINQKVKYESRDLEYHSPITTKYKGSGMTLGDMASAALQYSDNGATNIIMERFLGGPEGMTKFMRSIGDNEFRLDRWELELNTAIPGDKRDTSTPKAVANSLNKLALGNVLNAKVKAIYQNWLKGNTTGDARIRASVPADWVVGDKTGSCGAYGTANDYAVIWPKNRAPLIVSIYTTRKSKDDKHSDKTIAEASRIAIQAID
Description: as §5, §6, §7

KP1004 KPC-2 = test: Dose titration biapenem potentiation assay (MPC1); format: cell-based, Klebsiella pneumoniae; conditions: biapenem 1 μg/mL
Description: (§8) The potency and spectrum of β-lactamase inhibitors is also determined by assessing their biapenem potentiation activity in a dose titration potentiation assay using strains expressing serine carbapemenases (such as KPC). The potentiation effect is observed as the ability of BLI compounds to inhibit growth in the presence of sub-inhibitory concentration of biapenem. […] Biapenem is present in the test medium at 1 μg/mL. Compounds tested at the highest concentration of 40 μg/mL. […] Table 5 summarizes BLI potency of biapenem potentiation (MPC1). Biapenem MIC for each strain is also shown.

KP1008 KPC-2 = test: Dose titration biapenem potentiation assay (MPC1); format: cell-based, Klebsiella pneumoniae; conditions: biapenem 1 μg/mL
Description: as §8

EC1007 KPC-3 = test: Dose titration biapenem potentiation assay (MPC1); format: cell-based, Escherichia coli; conditions: biapenem 1 μg/mL
Description: as §8

ECL1004 NMC-A = test: Dose titration biapenem potentiation assay (MPC1); format: cell-based, Enterobacter cloacae; conditions: biapenem 1 μg/mL
Description: as §8

[8] = EC1007 KPC-3 lysate, read-out: IC50 (μg/mL) of inhibition of biapenem hydrolysis
[9] = SM1000 SME-2 lysate; read-out: IC50 (μg/mL) of inhibition of biapenem hydrolysis

Row | Structure (SMILES) | MPC8 [1] | MPC8 [2] | MPC8 [3] | IC50 [4] | IC50 [5] | IC50 [6, 8] | IC50 [7, 9] | BPM MPC1 KP1004 KPC-2 (KP1004 KPC-2) | BPM MPC1 KP1008 KPC-2 (KP1008 KPC-2) | BPM MPC1 EC1007 KPC-3 (EC1007 KPC-3) | BPM MPC1 ECL1004 NMC-A (ECL1004 NMC-A) | IC50 [6] | IC50 ([7]; read-out: IC50 (μg/mL) of inhibition of biapenem hydrolysis; SM1000 SME-2 lysate) | BPM MPC1 KP1004 KPC-2 (KP1004 KPC-2; numeric value) | BPM MPC1 KP1008 KPC-2 (KP1008 KPC-2; numeric value) | BPM MPC1 EC1007 KPC-3 (EC1007 KPC-3; numeric value) | BPM MPC1 ECL1004 NMC-A (ECL1004 NMC-A; numeric value)
1 | O=C(O)C[C@@H]1CC[C@H](NC(=O)Cc2ccccc2)B(O)O1 [Compound 6, 2-((3R,6S)-2-hydroxy-3-(2-phenylacetamido)-1,2-oxaborinan-6-yl)acetic acid] | X (X = MPC8 of less than 0.16 μg/mL.) | Z (Z = MPC8 of greater than 1 μg/mL.) | X (X = MPC8 of less than 0.16 μg/mL.) | 0.344 to 3.44 µM | 0.344 to 3.44 µM | < 0.344 µM | 0.344 to 3.44 µM | X (X = MPC1 of less than 1 μg/mL.) | X (X = MPC1 of less than 1 μg/mL.) | X (X = MPC1 of less than 1 μg/mL.) | X (X = MPC1 of less than 1 μg/mL.) |  |  |  |  |  | 
2 | O=C(O)CC1CC[C@H](NC(=O)Cc2ccccc2)B(O)O1 (stereo partly drawn) [Compound 2, 2-((3R)-2-hydroxy-3-(2-phenylacetamido)-1,2-oxaborinan-6-yl)acetic acid] |  |  | X (X = MPC8 of less than 0.16 μg/mL.) |  |  |  |  |  |  |  |  |  |  |  |  |  | 
3 | C[C@]1(Cn2ccnn2)[C@H](C(=O)O)N2C(=O)C[C@H]2S1(=O)=O [Tazobactam, reference compound] |  |  |  | > 3.33 µM | > 3.33 µM |  |  |  |  |  |  | > 3.33 µM | 0.333 to 3.33 µM | 40 µg/mL | 0.3 µg/mL | 5 µg/mL | 0.6 µg/mL
4 | O=C(O)CC1CC[C@H](NC(=O)C2CC2)B(O)O1 (stereo partly drawn) [Compound 4, 2-((3R)-3-(cyclopropanecarboxamido)-2-hydroxy-1,2-oxaborinan-6-yl)acetic acid] | Z (Z = MPC8 of greater than 1 μg/mL.) | Z (Z = MPC8 of greater than 1 μg/mL.) | X (X = MPC8 of less than 0.16 μg/mL.) | 0.415 to 4.15 µM | > 4.15 µM | 0.415 to 4.15 µM | 0.415 to 4.15 µM | X (X = MPC1 of less than 1 μg/mL.) | X (X = MPC1 of less than 1 μg/mL.) | X (X = MPC1 of less than 1 μg/mL.) | X (X = MPC1 of less than 1 μg/mL.) |  |  |  |  |  | 
